The values that follow come from patent publication US20230138851A1, “NOVEL ALKYNE DERIVATIVES” (CARNA BIOSCIENCES, INC., priority 2020, published 2023).

Holding throughout (format): biochemical
The target of one experiment is T1, DYRK1A (Homo sapiens, UniProt Q13627).
T1 construct: purchased Carna Biosciences, Inc. 04-130
The experiment is described as follows: Inhibition test on activity of DYRK family, mobility shift assay (MSA), DYRK1A. Particulars: ATP 100 μM, FITC-labeled DYRKtide peptide substrate, room temperature 1 hour; for pIC50: read-out: Inhibitory Activity 1a (IC50 against DYRK1A). As to the method:
(§1) [Inhibition Test on Activity of DYRK Family (DYRK1A, DYRK1B, DYRK2, and […])]
(§2) (Method for Measuring Kinase Activity)
(§3) The kinase activity was measured by mobility shift assay (MSA) method using QuickScout Screening Assist™ MSA (commercially available kit manufactured by Carna Biosciences, Inc.). The substrate of the kinase reaction used was an FITC-labeled DYRKtide peptide included in the kit. An assay buffer [20 mM HEPES, 0.01% Triton X-100™, 2 mM dithiothreitol, pH 7.5] was used to create a substrate mixture solution with a substrate (4 μM), MgCl2 (20 mM), and ATP (DYRK1A: 100 μM; DYRK1B: 200 μM; DYRK2: 40 μM; and DYRK3: 20 μM). In addition, kinases (DYRK1A: manufactured by Carna Biosciences, Inc., Cat. No. 04-130; DYRK1B: manufactured by Carna Biosciences, Inc., Cat. No. 04-131; DYRK2; manufactured by Carna Biosciences, Inc., Cat. No. 04-132; and DYRK3; manufactured by Carna Biosciences, Inc., Cat. No. 04-133) were diluted with the assay buffer to prepare enzyme solutions (DYRK1A: 0.2 ng/μL; DYRK1B: 0.08 ng/μL; DYRK2: 0.04 ng/μL; and DYRK3: 0.25 ng/μL). The 10 mM solution of the test compound in DMSO was further diluted with DMSO to 10 levels of the concentration (0.00003 mM, 0.0001 mM, 0.0003 mM, 0.001 mM, 0.003 mM, 0.01 mM, 0.03 mM, 0.1 mM, 0.3 mM, and 1 mM), each of which was subjected to 25-fold dilution with the assay buffer to obtain a drug solution (4% DMSO solution). 5 μL of the drug solution or a control solution (4% DMSO-assay buffer), 5 μL of the substrate mixture solution, and 10 μL of the enzyme solution were mixed in the wells of a polypropylene 384-well plate and allowed to react at room temperature for 1 hour, and then the reaction was quenched by adding 60 μL of the termination buffer included in the kit. Subsequently, the quantities of the substrates (S) and the phosphorylated substrate (P) in the reaction solution were measured using LabChip EZ Reader II system (manufactured by Caliper Life Sciences) according to the protocol of the assay kit.
(§4) (Method for Evaluating Inhibitory Activity)
(§5) The heights of the peaks of the “substrate” and the “phosphorylated substrate” were expressed as S and P, respectively, and a blank containing the assay buffer instead of the enzyme solution was also measured.
(§6) The inhibition rate (%) of the test compound was calculated according to the following equation:
(§7) Inhibition rate (%)=(1−(C−A)/(B−A))×100
(§8) wherein, A, B, and C represent P/(P+S) of the blank well, P/(P+S) of the control solution well, and P/(P+S) of the compound-containing well, respectively.
(§9) The IC50 value was calculated via a regression analysis of the inhibition rate and the test compound concentration (logarithmic value).
(§10) The inhibiting activities of representative compounds of the present invention are shown against DYRK1A, DYRK1B, DYRK2, and DYRK3 in Tables 7 and 8. The kinase activity inhibitory effect was indicated with the mark *** at an IC50 value of less than 0.01 μM; the mark ** at 0.01 μM or more and less than 0.1 μM; the mark * at 0.1 μM or more and less than 1 μM; and the mark — at 1 μM or more (N.D. indicates not measured).

The next experiment deals with T2, DYRK2 (Homo sapiens, UniProt Q92630).
T2 construct: purchased Carna Biosciences, Inc. 04-132
T2 sequence (Q92630 1-601): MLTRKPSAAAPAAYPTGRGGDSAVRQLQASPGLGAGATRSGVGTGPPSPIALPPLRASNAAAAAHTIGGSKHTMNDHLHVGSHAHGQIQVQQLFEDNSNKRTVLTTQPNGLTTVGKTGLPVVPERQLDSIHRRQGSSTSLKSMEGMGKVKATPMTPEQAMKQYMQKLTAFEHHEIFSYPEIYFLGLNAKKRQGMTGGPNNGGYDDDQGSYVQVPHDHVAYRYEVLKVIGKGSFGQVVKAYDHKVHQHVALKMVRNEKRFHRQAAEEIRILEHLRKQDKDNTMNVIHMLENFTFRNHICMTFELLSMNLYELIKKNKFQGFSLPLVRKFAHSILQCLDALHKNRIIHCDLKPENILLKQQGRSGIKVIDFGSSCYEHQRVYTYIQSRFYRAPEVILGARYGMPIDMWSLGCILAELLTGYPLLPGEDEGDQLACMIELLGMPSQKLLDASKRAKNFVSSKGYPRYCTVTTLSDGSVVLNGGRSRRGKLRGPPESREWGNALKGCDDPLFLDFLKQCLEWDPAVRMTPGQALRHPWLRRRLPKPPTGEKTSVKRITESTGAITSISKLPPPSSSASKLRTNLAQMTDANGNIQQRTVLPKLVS
Put plainly: Inhibition test on activity of DYRK family, mobility shift assay (MSA), DYRK2. The following applies: ATP 40 μM, FITC-labeled DYRKtide peptide substrate, room temperature 1 hour; for pIC50: read-out: Inhibitory Activity 2 (IC50 against DYRK2). As for the experimental part:
as §1, §2, §3, §4, §5, §6, §7, §8, §9, §10

A further experiment addresses T3, DYRK3 (Homo sapiens, UniProt O43781).
T3 construct: purchased Carna Biosciences, Inc. 04-133
T3 sequence (O43781 1-588): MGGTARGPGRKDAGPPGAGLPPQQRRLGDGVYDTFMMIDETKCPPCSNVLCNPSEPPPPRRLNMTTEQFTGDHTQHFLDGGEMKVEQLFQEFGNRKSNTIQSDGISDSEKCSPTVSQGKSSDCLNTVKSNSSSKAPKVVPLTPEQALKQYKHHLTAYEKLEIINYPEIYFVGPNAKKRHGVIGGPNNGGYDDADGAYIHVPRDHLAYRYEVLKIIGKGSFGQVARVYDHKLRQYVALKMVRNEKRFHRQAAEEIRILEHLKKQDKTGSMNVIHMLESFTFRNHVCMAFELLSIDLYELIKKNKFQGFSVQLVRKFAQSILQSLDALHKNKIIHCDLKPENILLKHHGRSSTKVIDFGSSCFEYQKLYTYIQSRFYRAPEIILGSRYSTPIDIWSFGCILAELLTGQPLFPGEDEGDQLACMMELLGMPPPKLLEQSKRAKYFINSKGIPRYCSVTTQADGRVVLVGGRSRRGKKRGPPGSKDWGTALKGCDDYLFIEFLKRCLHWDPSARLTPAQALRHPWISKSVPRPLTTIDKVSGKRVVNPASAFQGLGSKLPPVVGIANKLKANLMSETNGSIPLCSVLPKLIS
Put plainly: Inhibition test on activity of DYRK family, mobility shift assay (MSA), DYRK3. The following applies: ATP 20 μM, FITC-labeled DYRKtide peptide substrate, room temperature 1 hour; for pIC50: read-out: Inhibitory Activity 3 (IC50 against DYRK3). As to the method: as §1, §2, §3, §4, §5, §6, §7, §8, §9, §10

Structures are written as SMILES. pIC50: −log10 of the molar value. A value given as a limit tells only on which side of the number the result lay.

For orientation: pIC50 means the IC50 on a negative log10 scale, so that one unit is a factor of ten.

On to `CC#CC1CNC(=O)N1c1nc2c(ccc3nccn32)s1` (racemic) [Example 6, (RS)-1-(imidazo[1,2-a]thiazolo[5,4-e]pyridin-2-yl)-5-(prop-1-yn-1-yl)imidazolidin-2-one], for which, at DYRK1A, the “Inhibitory Activity 1a (IC50 against DYRK1A)” value (from here on “Inhibitory Activity 1a”) is listed as “* * *”. Moreover, the pIC50 at DYRK2 and on DYRK3 was 6.00 to 7.00 throughout.
As to `CC#CC1CNC(=O)N1c1nc2c(ccc3ocnc32)s1` (racemic) [Example 7, (RS)-5-(prop-1-yn-1-yl)-1-(thiazolo[5′,4′:5,6]benzo[1,2-d]oxazole-7-yl)imidazolidin-2-one], the “Inhibitory Activity 1a” value at DYRK1A is listed as “* * *”. In addition, the pIC50 on DYRK2 and at DYRK3 was not above 6.00 throughout.
As to `C[Si](C)(C)C#CC1CNC(=O)N1c1nc2c3c(ccc2s1)OCC3` (racemic) [Example 11, (RS)-1-(7,8-dihydrobenzofuro[4,5-d]thiazol-2-yl)-5-[(trimethylsilyl)ethynyl]imidazolidin-2-one], the “Inhibitory Activity 1a” value at DYRK1A was “* *”. The pIC50 on DYRK2 and on DYRK3 was 6.00 to 7.00 in each case.
With `C#CC1CNC(=O)N1c1nc2c3c(ccc2s1)OCC3` (racemic) [Example 12, (RS)-1-(7,8-dihydrobenzofuro[4,5-d]thiazol-2-yl)-5-ethynylimidazolidin-2-on], on DYRK1A, the “Inhibitory Activity 1a” value is given as “* * *”. Also, on DYRK2, the “Inhibitory Activity 2 (IC50 against DYRK2)” value is listed as “* *”. On DYRK3, the “Inhibitory Activity 3 (IC50 against DYRK3)” value is given as “* *”.
`O=C1NCC(C#Cc2ccccc2)N1c1nc2c3c(ccc2s1)OCC3` (racemic) [Example 15, (RS)-1-(7,8-dihydrobenzofuro[4,5-d]thiazol-2-yl)-5-(phenylethynyl)imidazolidin-2-one]: the pIC50 on DYRK1A was 6.00 to 7.00; at DYRK2 it was not above 6.00; at DYRK3, not above 6.00.
As to `CN(C)CC#CC1CNC(=O)N1c1nc2c3c(ccc2s1)OCC3` (racemic) [Example 18, (RS)-1-(7,8-dihydrobenzofuro[4,5-d]thiazol-2-yl)-5-[3-(dimethylamino)prop-1-yn-1-yl]imidazolidin-2-one], at DYRK1A, the “Inhibitory Activity 1a” value is given as “* *”. Besides, the pIC50 at DYRK2 is not above 6.00; on DYRK3 it was 6.00 to 7.00.
The like results for `O=C1NCC(C#CCO)N1c1nc2c3c(ccc2s1)OCC3` (racemic) [Example 19, (RS)-1-(7,8-dihydrobenzofuro[4,5-d]thiazol-2-yl)-5-(3-hydroxyprop-1-yn-1-yl)imidazolidin-2-one] were, in that order, “* * *”, 6.00 to 7.00 and 6.00 to 7.00.
Turning to `COCC#CC1CNC(=O)N1c1nc2c3c(ccc2s1)OCC3` (racemic) [Example 20, (RS)-1-(7,8-dihydrobenzofuro[4,5-d]thiazol-2-yl)-5-(3-methoxyprop-1-yn-1-yl)imidazolidin-2-one], the results for the pIC50 at DYRK1A, at DYRK2 and at DYRK3 were 6.00 to 7.00, not above 6.00 and not above 6.00, respectively.
Take `O=C1NCC(C#CC2CC2)N1c1nc2c3c(ccc2s1)OCC3` (racemic) [Example 21, (RS)-5-(cyclopropylethynyl)-1-(7,8-dihydrobenzofuro[4,5-d]thiazol-2-yl)imidazolidin-2-one]: the “Inhibitory Activity 1a” value on DYRK1A is listed as “* * *”. Moreover, the pIC50 at DYRK2 was not above 6.00; at DYRK3, 6.00 to 7.00.
For `CC(C)(O)C#CC1CNC(=O)N1c1nc2c3c(ccc2s1)OCC3` (racemic) [Example 22, (RS)-1-(7,8-dihydrobenzofuro[4,5-d]thiazol-2-yl)-5-(3-hydroxy-3-methylbut-1-yn-1-yl)imidazolidin-2-one] the same measures were “* *”, not above 6.00 and not above 6.00.
Consider `CC#CC1CNC(=O)N1c1nc2c(ccc3nc[nH]c32)s1` (racemic) [Example 35, (RS)-1-(8H-imidazo[4′,5′:5,6]benz[1,2-d]thiazol-2-yl)-5-(prop-1-yn-1-yl)imidazolidin-2-one], for which, on DYRK1A, the “Inhibitory Activity 1a” value is on record as “** *”. The pIC50 on DYRK2 and at DYRK3 was 6.00 to 7.00 in each case.
As for `CC#CC1CNC(=O)N1c1nc2c(ccc3ncn(CC(C)(C)O)c32)s1` (racemic) [Example 37, (RS)-1-[8-(2-hydroxy-2-methylpropyl)-8H-imidazo[4′,5′;5,6]benz[1,2-d]thiazol-2-yl]-5-(prop-1-yn-1-yl)imidazolidin-2-one], the “Inhibitory Activity 1a” value at DYRK1A was “* *”. On DYRK2, the negative logarithm of the IC50 (pIC50) was 6.00 to 7.00. Moreover, the “Inhibitory Activity 3 (IC50 against DYRK3)” value at DYRK3 is “* *”.
For `CC#CC1CNC(=O)N1c1nc2c3c(ccc2s1)OCC(C)N3C` (racemic) [Example 40, (RS)-1-((RS)-8,9-dimethyl-8,9-dihydro-7H-thiazolo[4′,5′:3,4]benz[1,2-b][1,4]oxazin-2-yl)-5-(prop-1-yn-1-yl)imidazolidin-2-one], the “Inhibitory Activity 1a” value at DYRK1A is “* * *”. Moreover, the negative logarithm of the IC50 (pIC50) on DYRK2 and at DYRK3 was 6.00 to 7.00 each time.
Regarding `CC#CC1CNC(=O)N1c1nc2c3c(ccc2s1)OCCN3CCO` (racemic) [Example 41, (RS)-1-[9-(2-hydroxyethyl)-8,9-dihydro-7H-thiazolo[4′,5′:3,4]benz[1,2-b][1,4]oxazin-2-yl]-5-(prop-1-yn-1-yl)imidazolidin-2-one], at DYRK1A, the “Inhibitory Activity 1a” value is “* * *”. For the same compound, the negative-log IC50 (pIC50) at DYRK2 and at DYRK3 was 6.00 to 7.00 in each case.
